Assays:
Leishmania infantum = test: microbe, parasite or virus in culture; assay type: functional; settings: MHOM/BR/1972/BH046, 72 h
Description: Anti-leishmanial activity against Leishmania infantum MHOM/BR/1972/BH046 amastigotes infected in cells measured after 3 days by Draq5 staining based assay

[1] = (§1) Cytotoxicity against human THP1 cells measured after 72 hrs by resazurin assay; assay type: cell-based, THP-1; settings: THP-1 cells
[2] = (§2) Cytotoxicity against African green monkey Vero cells measured after 72 hrs by resazurin assay; assay type: cell-based; settings: chlorocebus sabaeus, Vero cells
in vitro [3] = settings: human
Description: Selectivity index, ratio of CC50 for human THP1 cells to EC50 for Leishmania infantum MHOM/BR/1972/BH046 amastigotes

in vitro [4] = settings: monkey, Vero cells
Description: Selectivity index, ratio of CC50 for African green monkey Vero cells to EC50 for Leishmania infantum MHOM/BR/1972/BH046 amastigotes

THP-1 = test: as §1; assay type: cell-based; settings: thp-1, 72 h
Vero = test: as §2; assay type: cell-based; settings: chlorocebus sabaeus, vero, 72 h

SMILES | EC50 (Leishmania infantum) [µM] | CC50 at 72 h [1] [µM] | CC50 at 72 h [2] [µM] | selectivity ratio (in vitro [3]; THP-1 cells) | selectivity ratio (in vitro [4]) | CC50 (THP-1) [µM] | CC50 (Vero) [µM] | selectivity ratio (in vitro [3])
O=C(/C=C/c1ccc([N+](=O)[O-])o1)c1ccc(N2CCOCC2)cc1 |  | 49 | > 100 |  |  |  |  | 
COc1ccc(/C=C/C(=O)c2cccc(I)c2)cc1 | > 50 |  |  |  | 2 | > 50 | > 100 | 
CN(C)c1ccc(/C=C/C(=O)c2ccc(-c3ccccc3)cc2)cc1 | > 50 |  |  |  |  | > 50 |  | 
O=C(/C=C/c1ccc([N+](=O)[O-])o1)c1ccc(N2CCCC2)cc1 | 11.8 | > 50 |  | > 4.26 |  |  |  | 
CC(C)(C)c1ccc(C(=O)/C=C/c2ccc([N+](=O)[O-])s2)cc1 | 31.1 | 8.4 to 8.49 |  | 0.2 to 0.27 | 3 to 3.2 |  | > 100 | 
Cc1cccc(C(=O)/C=C/c2ccc([N+](=O)[O-])o2)c1 | > 50 | 42.1 | 55.1 | > 50 |  |  |  | 
O=C(/C=C/c1ccc([N+](=O)[O-])cc1)c1ccc(N2CCCCC2)cc1 | > 50 |  |  |  |  | > 50 |  | 
O=C(/C=C/c1ccc([N+](=O)[O-])o1)c1ccc(-n2ccnc2)cc1 | 12.4 | 22.2 | > 100 | 1.79 | 8.1 |  |  | 
O=C(/C=C/c1ccc([N+](=O)[O-])o1)c1ccc(N2CCNCC2)cc1 | 9.6 |  |  | > 5.2 | 10 to 10.4 | > 50 | > 100 | 
Cc1ccc(C(=O)/C=C/c2ccc([N+](=O)[O-])s2)cc1 | > 50 | 13.5 |  |  |  |  |  | 
O=C(/C=C/c1ccc([N+](=O)[O-])o1)c1ccc(C2CCCCC2)cc1 |  | 3.1 to 31.1 |  | 2.8 to 2.84 | 9.1 to 10 |  | > 100 | 
O=C(/C=C/c1ccc([N+](=O)[O-])o1)c1ccc(I)cc1 |  | 49.5 |  | 1.8 to 1.82 | 3.6 |  | > 100 | 
O=C(/C=C/c1ccc([N+](=O)[O-])o1)c1ccc(-c2ccccc2)cc1 | 21.4 | 50.4 | > 100 | 2.35 | 4.7 |  |  | 
O=C(/C=C/c1ccc([N+](=O)[O-])s1)c1ccc(-n2ccnc2)cc1 | 31.4 | 23.4 | 42.7 | 0.75 | 1.3 |  |  | 
CCCCc1ccc(C(=O)/C=C/c2ccc([N+](=O)[O-])s2)cc1 | > 50 | 17.1 | 81.3 |  |  |  |  | 
O=C(/C=C/c1cccc([N+](=O)[O-])c1)c1ccc(N2CCCCC2)cc1 | 30.8 |  |  | > 1.62 |  | > 50 |  | 
CCCCc1ccc(C(=O)/C=C/c2ccc([N+](=O)[O-])o2)cc1 | > 50 | 48.7 | 75.7 |  |  |  |  | 
O=C(/C=C/c1ccc(Cl)s1)c1ccc(-n2ccnc2)cc1 | 21.4 | > 50 |  | > 2.33 |  |  |  | 
O=C(/C=C/c1ccc([N+](=O)[O-])o1)c1cccc(Br)c1 | 23.8 |  |  | 0.6 to 0.63 | 2.8 to 2.9 | 14.9 | 68.8 | 
CSc1ccc(C(=O)/C=C/c2ccc([N+](=O)[O-])o2)cc1 | 9.31 | 13.1 |  | 1.4 to 1.41 | 4.3 |  | 40.7 | 

Now from value to molecule, other results behind:

EC50 (Leishmania infantum) [µM] | SMILES | CC50 at 72 h [1] [µM] | CC50 at 72 h [2] [µM] | selectivity ratio (in vitro [3]; THP-1 cells) | selectivity ratio (in vitro [4]) | CC50 (THP-1) [µM] | CC50 (Vero) [µM] | selectivity ratio (in vitro [3])
29.1 | O=C(/C=C/c1ccc([N+](=O)[O-])o1)c1ccc(Br)cc1 | 13.4 | > 100 | 0.46 | 3.4 |  |  | 
6.32 | O=C(/C=C/c1ccc([N+](=O)[O-])o1)c1ccc(N2CCCCC2)cc1 |  |  | > 7.91 | 55 | > 50 | 349 | 
> 50 | COc1ccc(/C=C/C(=O)c2cccc(Br)c2)cc1 | > 50 | > 100 | > 50 |  |  |  | 
> 50 | COc1ccc(/C=C/C(=O)c2ccc(-c3ccccc3)cc2)cc1 |  |  |  |  | > 50 |  | 
> 50 | O=C(/C=C/c1ccc([N+](=O)[O-])s1)c1ccc(C2CCCCC2)cc1 | > 50 |  |  |  |  |  | 
> 50 | O=C(/C=C/c1ccc([N+](=O)[O-])s1)c1ccc(N2CCOCC2)cc1 | 39.9 |  |  |  |  |  | 
> 50 | CC(C)(C)c1ccc(C(=O)/C=C/c2ccco2)cc1 | > 50 |  |  |  |  |  | 
> 50 | CC(C)(C)c1ccc(C(=O)/C=C/c2ccc([N+](=O)[O-])o2)cc1 | > 50 | > 100 |  |  |  |  | 
37.7 | Cc1ccccc1C(=O)/C=C/c1ccc([N+](=O)[O-])o1 | 27.9 | 41.3 | 0.74 | 1 |  |  | 
> 50 | CSc1ccc(C(=O)/C=C/c2ccc([N+](=O)[O-])s2)cc1 | 8.56 | > 100 |  |  |  |  | 
> 50 | O=C(/C=C/c1ccco1)c1ccc(N2CCCCC2)cc1 | > 50 |  | > 50 |  |  |  | 
45.5 | CSc1ccc(C(=O)/C=C/c2ccco2)cc1 | > 50 |  | > 1.09 |  |  |  | 
1.92 | C[C@@H]1[C@H](O)[C@@H](C)/C=C/C=C/C=C/C=C/C=C/C=C/C=C/[C@H](O[C@@H]2O[C@H](C)[C@@H](O)[C@H](N)[C@@H]2O)C[C@@H]2O[C@](O)(C[C@@H](O)C[C@@H](O)[C@H](O)CC[C@@H](O)C[C@@H](O)CC(=O)O[C@H]1C)C[C@H](O)[C@H]2C(=O)O [AMPHOTERICIN B] | > 50 |  |  |  |  |  | > 26
